Tests used:
Assay type in all cases: cell-based, human
[1] = tested on: FOXO1; assay: FOXO1 phosphorylation and nuclear localization (Western blot, cell fractionation); details: LNCaP and PC-3-GFP cells
From the text: The transcription factor FOXO1 is a downstream substrate of Akt in which phosphorylation by Akt prevents its pro-apoptotic actions (Woods et al., 2002). Since previous studies of α-TEA's mechanism of action in inducing apoptosis in cancer cells show a role for Fas signaling (Shun et al., 2004) and since FOXO1 has been proposed to be a transcriptional regulator of FasL (Ciechomska et al., 2003), it was of interest to investigate the effects of α-TEA on FOXO1 phosphorylation status and cellular location. […] FOXO1 is normally localized in the nucleus (Woods et al., 2002) and phosphorylation of FOXO1 by Akt at Ser 256 promotes the relocation of FOXO1 from the nucleus to the cytosol, thereby inhibiting its transcriptional activity (Greer et al., 2005). As expected, control LNCaP and PC-3-GFP cells had high levels of FOXO1 in the cytosol reflecting the constitutively activated state of Akt in these cells (FIG. 7B).
Plasmids encoding wild type FOXO1 (Flag-tagged FOXO1) and constitutively active FOXO1 (Flag-tagged FOXO1AAA) were generous gifts from Dr. Kun-Liang Guan (Tang et al., 1999). FOXO1 and phospho-FOXO1 antibodies were purchased from Cell Signaling Technology (Beverly, Mass.).
Preparation of cytoplasmic and nuclear extracts for the foregoing experiments was carried-out using methods that are well known in the art. […]

[2] = tested on: FlipL; assay: FlipL protein level by immunoblot; details: LNCaP and PC-3-GFP cells, 40 μM α-TEA, time-dependent
From the text: Antibodies to human Flip and survivin used in these experiments were purchased from Santa Cruz Biotechnology (Santa Cruz, Calif.).

[3] = tested on: NOXA; assay: NOXA mRNA (RT-PCR) and protein (Western blot) levels; details: for peak NOXA mRNA levels, fold higher than VEH control / NOXA protein levels, fold higher than VEH control: 40 μM α-TEA; for NOXA protein levels, fold higher than VEH control: 24 h
Experimental: Whole-cell protein extracts were prepared as described previously (Yu et al., 1999), and 50 μg of protein was loaded per lane, separated using SDS-PAGE on a 10-15% gel under reducing conditions, and electroblotted onto a nitrocellulose membrane ([…] Optitran BA-S-supported nitrocellulose; Schleicher and Schuell, Keene, N.H.). Equal loading was verified using GAPDH antibody. Primary rabbit antibodies with specificity for PARP and primary goat antibody with specificity for Arg were purchased from Santa Cruz Biotechnology (Santa Cruz, Calif.). Horseradish peroxidase conjugated goat anti-rabbit or horseradish goat anti-mouse secondary antibody was purchased from Jackson Immunoresearch Laboratory (West Grove, Pa.). Horseradish peroxidase-conjugated donkey anti-goat serum was purchased from Santa Cruz Biotechnology. Immune complexes were visualized using enhanced chemiluminescence detection (Pierce Chemical Co., Rockford, Ill.). Fold differences in level of chemiluminescence were determined by densitometric analyses.
Total RNA was isolated from cells using RNeasy Protect Mini kit (Qiagen, Valencia, Calif.) according to manufacturer's instruction. Reverse transcription was performed as described above except using 15 μg of total RNA as template. Polymerase chain reaction (PCR) with Arg primers 30 cycles in volumes of 50 μl according to the manufacturer's protocol (Taq PCR Master Mix Kit; Qiagen, Valencia, Calif.). Primers used in the analyses were: Arg, forward (5′-CAGTGATGCCTCCACCTCAA-3′; SEQ ID NO:2) and reverse (5′-TTTCCCTCTCCCCTCAGAAAT-3′; SEQ ID NO:3) and for β-actin (loading control), forward (5′-GGCGGCACCACCATGTACCCT-3′; SEQ ID NO:4) and reverse (5′-AGGGGCCGGACTCGTCATACT-3′; SEQ ID NO:5) (Invitrogen, Carlsbad, Calif.). The amplification reaction involved denaturation at 95° C. for 30 seconds, annealing at 52° C. for 30 seconds, and extension at 72° C. for 30 seconds (for Arg) using a PTC-225 thermal cycler (MJ Research, San Francisco, Calif.). The PCR products were resolved on 1% agarose gels and visualized by ethidium bromide staining.
To confirm the microarray data, semi-quantative RT-PCR and Western blot analyses were carried out to measure the change in mRNA and protein level of NOXA using estrogen nonresponsive MDA-MB-435 and estrogen responsive MCF-7 human breast cancer cells. Assays were preformed as describide above using NOXA specific antibodies (purchased from Santa Cruz Biotechnology (Santa Cruz, Calif.)) and NOXA sepcific PCR primers (forward (5′-CGTGTGTAGTTGGCATCTCC-3′) and reverse (5′-GCCCCAAGTAACCCTCCTAT-3′)). In MCF-7 cells, α-TEA induced NOXA mRNA starting at 3 h, peaking at 15 h (FIG. 9A, left top panel). In MDA-MB-435 cells, α-TEA induced NOXA mRNA starting at 3 h, peaking at 6 h (FIG. 9A, right top panel). In both cell lines, protein levels of NOXA were increased at 15 and 24 h after α-TEA treatments (FIG. 9C, top panel). […] In MCF-7 cells, peak NOXA mRNA levels at 15 h were 1.5-fold higher than the VEH control and NOXA protein levels at 24 h were 7.6-fold higher than the VEH control. Upregulation of NOXA protein levels is correlated with PARP cleavage which is an indicator of cells undergoing apoptosis (Wolf and Green, 1999) (FIG. 9C, second panel). GAPDH levels served to help verify lane loads (FIG. 9C, bottom panel). […] NOXA protein levels were also assessed in other cell lines including MDA-MB-231 and T47D human breast cancer cell lines, immortalized, but nontumorigenic MCF-10A breast epithelial cells as well as human normal mammary epithelial cell line (HMEC) (Table 3). The ability of α-TEA to induce NOXA and induce apoptosis plus the p53 status based on the literature is summarized (Table 3).

With Cc1c(C)c2c(c(C)c1OCC(=O)O)CC[C@@](C)(CCC[C@H](C)CCC[C@H](C)CCCC(C)C)O2 [α-TEA] the FOXO1 nuclear localization ([1]; 40 μM α-TEA for 24 h) was “increase in FOXO1 levels in the nucleus”, the phospho-FOXO1 levels ([1]; 40 μM α-TEA, 3-24 h, total protein unchanged) was “reduced in a time-dependent manner” and the “protein levels of FlipL” value [2] was “downregulated”. For the same molecule, the “Ability of α-TEA to induce NOXA expression” value (shortened to “Ability of α-TEA”) ([3]; HMEC) was “No”, the “Ability of α-TEA” value ([3]; MCF-7) was “Yes” and the “peak NOXA mRNA levels, fold higher than VEH control” value ([3]; MCF-7 cells, 15 h) was 1.5 fold. The “NOXA protein levels, fold higher than VEH control” value ([3]; MCF-7 cells) was 7.6 fold, the “Ability of α-TEA” value ([3]; MCF-10A) was “Yes” and the “Ability of α-TEA” value ([3]; MDA-MB-231) was “Yes”. For the same molecule, the “Ability of α-TEA” value ([3]; MDA-MB-435) was “Yes”, the “peak NOXA mRNA levels, fold higher than VEH control” value ([3]; MDA-MB-435 cells, 6 h) was 2.6 fold and the “NOXA protein levels, fold higher than VEH control” value ([3]; MDA-MB-435 cells) was 16.8 fold. The “Ability of α-TEA” value ([3]; T47D) was “No”.

From US20100292316A1, “IMPROVED THERAPEUTIC METHODS AND COMPOSITIONS COMPRISING CHROMAN RING COMPOUNDS” (Research Development Foundation, priority 2007, published 2010)
